This is an account of results in publication PMC5793121 (Toxins, 2018).

Data set [1] concerns mice. Conditions: mouse, in vivo; cited from earlier work.
The conditions of data set [2]: human; cited from earlier work. The source says: Pharmacokinetics and pharmacodynamics are the empirical mathematical models that describe the time course of drug effect after administration. Pharmacokinetics describes the disposition of drug in the organism, while pharmacodynamics relates the drug effects to their concentration in the plasma and at the site of action. They can be used to predict the drug action at different doses and by this way to optimize the safe and effective use of the drug. Information from pharmacokinetic studies can be used in the design and analysis of data from other toxicity studies. Several pharmacokineti ...

The subject of data set [3] is hprt gene of CHO-k1 cells. As to conditions: n = 6.
Data set [4] deals with human neuronal heteromeric α3-containing nAChRs (α3β2, α3β4, etc.). The format is cell-based.
Data set [5] relates to mice. Conditions: 0.1 mg/kg; cited from earlier work.
The target in data set [6] is T1, mouse muscle type α1β1εδ nAChR (Mus musculus, UniProt P02716+P04756+P20782).
T1 construct: expressed in transfected cells; host or cells: mouse neuroblastoma Neuro2a, transient transfection (pRBG4 plasmids), co-expressed with Case12 calcium sensor
T1 sequence (P09690 24-501): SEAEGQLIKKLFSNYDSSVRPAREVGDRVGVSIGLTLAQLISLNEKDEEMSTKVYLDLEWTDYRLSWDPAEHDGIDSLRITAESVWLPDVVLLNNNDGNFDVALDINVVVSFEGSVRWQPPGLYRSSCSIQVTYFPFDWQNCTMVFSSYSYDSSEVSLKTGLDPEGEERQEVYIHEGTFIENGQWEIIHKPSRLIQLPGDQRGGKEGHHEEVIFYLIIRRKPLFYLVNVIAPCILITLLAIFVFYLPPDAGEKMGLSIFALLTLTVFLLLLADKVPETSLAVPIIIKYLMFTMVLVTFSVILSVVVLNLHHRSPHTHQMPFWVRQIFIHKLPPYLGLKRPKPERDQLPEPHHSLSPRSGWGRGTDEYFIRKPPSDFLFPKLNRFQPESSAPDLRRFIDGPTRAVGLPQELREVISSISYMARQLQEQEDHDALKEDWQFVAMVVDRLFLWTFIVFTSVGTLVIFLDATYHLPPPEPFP
T1 sequence (P04756 21-457): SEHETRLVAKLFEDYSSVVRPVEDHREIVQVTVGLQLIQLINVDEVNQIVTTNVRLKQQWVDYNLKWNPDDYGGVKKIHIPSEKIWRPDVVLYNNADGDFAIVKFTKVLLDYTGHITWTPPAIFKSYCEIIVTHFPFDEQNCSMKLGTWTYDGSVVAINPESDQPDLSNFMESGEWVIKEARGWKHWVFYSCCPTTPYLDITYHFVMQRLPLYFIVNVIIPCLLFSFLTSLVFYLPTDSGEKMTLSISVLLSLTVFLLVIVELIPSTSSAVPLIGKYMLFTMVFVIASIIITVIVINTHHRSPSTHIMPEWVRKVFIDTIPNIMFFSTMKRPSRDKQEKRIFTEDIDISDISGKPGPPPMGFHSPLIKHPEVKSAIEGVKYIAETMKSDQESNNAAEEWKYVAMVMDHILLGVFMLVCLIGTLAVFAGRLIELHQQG
T1 sequence (P02716 25-520): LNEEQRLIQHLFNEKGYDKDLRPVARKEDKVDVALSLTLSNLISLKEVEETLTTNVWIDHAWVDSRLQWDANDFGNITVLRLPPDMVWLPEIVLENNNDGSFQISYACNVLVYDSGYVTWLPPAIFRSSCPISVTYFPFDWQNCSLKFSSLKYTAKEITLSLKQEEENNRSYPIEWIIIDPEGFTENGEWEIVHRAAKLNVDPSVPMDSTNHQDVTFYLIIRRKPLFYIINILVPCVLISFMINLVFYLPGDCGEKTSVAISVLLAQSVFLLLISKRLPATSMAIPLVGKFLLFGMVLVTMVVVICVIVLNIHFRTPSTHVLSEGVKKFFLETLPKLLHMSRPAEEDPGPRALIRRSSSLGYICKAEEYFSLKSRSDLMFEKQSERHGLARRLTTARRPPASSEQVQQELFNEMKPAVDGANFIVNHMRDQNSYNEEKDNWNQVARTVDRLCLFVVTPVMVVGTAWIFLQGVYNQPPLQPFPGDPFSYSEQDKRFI
T1 sequence (P20782 21-493): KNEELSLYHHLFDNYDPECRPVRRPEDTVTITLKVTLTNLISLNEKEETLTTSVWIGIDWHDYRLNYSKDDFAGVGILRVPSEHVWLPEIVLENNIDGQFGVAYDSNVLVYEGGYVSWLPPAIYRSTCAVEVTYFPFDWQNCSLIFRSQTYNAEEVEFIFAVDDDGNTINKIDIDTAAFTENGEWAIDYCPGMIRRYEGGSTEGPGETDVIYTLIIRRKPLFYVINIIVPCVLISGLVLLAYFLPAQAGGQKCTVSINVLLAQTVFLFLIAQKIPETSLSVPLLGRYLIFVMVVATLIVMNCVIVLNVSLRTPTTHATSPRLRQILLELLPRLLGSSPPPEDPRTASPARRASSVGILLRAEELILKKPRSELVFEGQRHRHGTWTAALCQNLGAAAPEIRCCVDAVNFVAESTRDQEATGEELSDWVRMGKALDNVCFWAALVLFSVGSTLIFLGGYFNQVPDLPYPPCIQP
Description: Calcium imaging of ACh-evoked [Ca2+]i rise in Neuro2a cells expressing muscle nAChR (Case12 sensor). It is filed as cell-based. Here is the method: (§1) Mouse neuroblastoma Neuro2a cells were purchased from the Russian collection of cell cultures (Institute of Cytology, Russian Academy of Sciences, Saint Petersburg, Russia). Cells were cultured in DMEM (Paneco, Moscow, Russia) supplemented with 10% FBS. They were sub-cultured the day before transfection and were plated at a density of 10,000 cells per well in a 96-well black plate. On the next day Neuro2a cells were transiently transfected with plasmids coding mouse muscle α1β1δε nAChR (pRBG4-vector) and a fluorescent calcium sensor Case12 (pCase12-cyto vector, Evrogen, Moscow, Russia) in a molar ratio of 2:1 following a lipofectamine transfection protocol (ThermoFisher Scientific, Waltham, MA, USA). Human α7 nAChR (α7 nAChR-pCEP4) was expressed accordingly with a co-expression of the human chaperone Ric-3 (Ric3-pCMV6-XL5, OriGene, Rockville, MD, USA) in a molar ratio 4:1. The transfected cells were grown at 37 °C in a CO2 incubator for 48–72 h, before performing the calcium imaging assay.
Calcium imaging procedure was performed as published earlier. Briefly, after removing the growth medium, the transfected Neuro2a cells and cultivated SH-SY5Y cells were washed with a buffer containing 140 mM NaCl, 2 mM CaCl2, 2.8 mM KCl, 4 mM MgCl2, 20 mM HEPES, 10 mM glucose; pH 7.4. Neuro2a cells expressing muscle nAChR and the protein calcium sensor Case12 were proceeded directly, while SH-SY5Y cells expressing human α3-containing nAChRs natively were loaded with a fluorescent dye Fluo-4, AM (1.824 μM, ThermoFisher Scientific, Waltham, MA, USA) and a water-soluble probenecid (1.25 mM, ThermoFisher Scientific, Waltham, MA, USA) for 30 min at 37 °C and then were kept for 30 min at room temperature according to the manufacturer’s protocol.
To detect the human α7 nAChR-mediated calcium response, transfected Neuro2a cells were incubated with its positive allosteric modulator PNU120596 (10 μM, Tocris Bioscience, Bristol, UK) for 20 min at room temperature before acetylcholine (Sigma-Aldrich Chemie Gmbh, Munich, Germany) addition. To assess mouse muscle or human α3-containing nAChRs this step was skipped. […]
(§2) The plates were transferred to the multimodal microplate reader Hidex Sence (Hidex, Turku, Finland) where the cells were excited by light of 485 nm wavelength and emitted fluorescence was detected at 535 ± 10 nm. Fluorescence was recorded every 2 s for three minutes following agonist addition. Responses were measured as peak intensity minus basal fluorescence level and were expressed as a percentage of the maximal response obtained to agonist. Data files were analyzed using Hidex Sence software (Hidex, Turku, Finland) and OriginPro 7.5 software (OriginLab, Northampton, MA, USA, for statistical analysis).

In data set [7] the target is T2, human neuronal homopentameric α7 nAChR (Homo sapiens, UniProt P36544).
T2 construct: expressed in transfected cells; host or cells: mouse neuroblastoma Neuro2a, transient transfection (α7 nAChR-pCEP4) with human Ric-3 (Ric3-pCMV6-XL5, OriGene)
T2 sequence (P36544 23-502): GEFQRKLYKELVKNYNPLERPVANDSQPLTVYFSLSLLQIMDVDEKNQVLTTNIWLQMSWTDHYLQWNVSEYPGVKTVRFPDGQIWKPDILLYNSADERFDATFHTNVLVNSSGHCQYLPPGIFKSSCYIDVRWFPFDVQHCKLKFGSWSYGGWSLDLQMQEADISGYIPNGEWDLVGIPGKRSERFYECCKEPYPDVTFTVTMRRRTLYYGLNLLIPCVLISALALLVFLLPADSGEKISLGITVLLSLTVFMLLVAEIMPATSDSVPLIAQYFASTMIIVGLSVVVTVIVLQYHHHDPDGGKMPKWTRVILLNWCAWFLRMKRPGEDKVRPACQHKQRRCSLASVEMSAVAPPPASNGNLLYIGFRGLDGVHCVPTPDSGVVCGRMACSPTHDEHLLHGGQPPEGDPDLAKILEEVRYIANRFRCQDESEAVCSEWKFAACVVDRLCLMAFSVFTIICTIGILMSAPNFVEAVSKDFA
In words: Calcium imaging of ACh-evoked [Ca2+]i rise in Neuro2a cells expressing α7 nAChR. As to conditions: 10 μM ACh (EC50); transfected Neuro2a cells, PNU120596 10 μM; 15 min preincubation; mean ± SEM, 4 independent experiments; read-out: IC50, inhibition of ACh-evoked calcium response of α7 nAChR. The format is cell-based. Here is the method:
as §1, with “Human α7 nAChR (α7 nAChR-pCEP4) was expressed accordingly with a co-expression of the human chaperone Ric-3 (Ric3-pCMV6-XL5, OriGene, Rockville, MD, USA) in a molar ratio 4:1. The transfected cells were grown at 37 °C in a CO2 incubator for 48–72 h, before performing the calcium imaging assay.” left out
as §2

In data set [8] the test system is male ICR mice. In words: Forelimb grip strength test (muscle relaxant effect) after intramuscular administration. It is filed as in vivo, mouse. The procedure:
40 male ICR mice were divided equally into four groups: one control and three experimental groups. Animals of the control and experimental groups were treated with normal saline and with Az at doses of 0.03, 0.1 and 0.3 mg/kg, respectively. In addition 6 mice were treated with Az at dose of 0.01 mg/kg. The corresponding solutions were injected into the triceps muscles of the mouse forelimbs at a volume of 0.5 mL/kg per each limb. For all animals their basic forelimb grip strength was recorded before the substance administration with a 1027 grip strength meter (Columbus Instruments, Columbus, OH, USA). Further, their grip strength was measured 5, 10, 15, 20, 30, 60, 90 min after the Az (or normal saline) im administration.
Rocuronium was administered intramuscularly as described for the measurement of acute toxicity (Section 5.4.1). Muscle strength was assessed prior to administration of the substance and then 1, 2, 3, 4, 5 min after administration.

The subject of data set [9] is male ICR mice. Description: in vivo. The procedure:
Az acute toxicity was estimated for its intravenous (iv) and intramuscular (im) administration to male ICR mice in a stepwise procedure.
For the iv route of administration, 20 mice were randomly divided in 5 groups of 4 animals each. The animals of each group received a single dose of Az (0.3, 0.4, 0.5, 0.6, or 0.7 mg/kg, respectively) injected into the lateral tail vein at a volume of 1 mL/kg. For the im route of administration, first two experimental groups of 3 animals each were formed. Az at doses of 0.75 and 1.0 mg/kg, respectively, was injected into the quadriceps muscle of the thigh (quadriceps femoris muscle) of two mouse hind limbs at a volume of 0.5 mL/kg to each muscle. Then, five experimental groups of 5 animals each were formed. Az was injected into the quadriceps muscle of the thigh (quadriceps femoris muscle) of the two hind limbs of male ICR mice at doses of 0.8, 0.775, 0.75, 0.725 and 0.7 mg/kg. The injection volume to each limb was 1 mL/kg. Further, neurotoxic manifestations were recorded in animals at 5, 10, 20, 30, 60 and 90 min and 24 h after administration using the functional observation battery, the number of death was counted as well.
For the iv and im route of administration, the median lethal dose (LD50) was calculated using a probit analysis. For the im route of administration, the maximum tolerated dose was determined.
Rocuronium was administered intramuscularly at doses of 0.13 mg/kg (n = 1), 0.1 mg/kg (n = 4) and 0.08 mg/kg (n = 4) in the triceps of the forelimbs of male ICR mice (8–9 weeks old). Control animals were injected with saline (n = 4). The volume of administration was 0.5 mL/kg in each limb.

For another data set, the system named is rats. Conditions: iv injection to rats; cited from earlier work. Here is the method:
Acute toxicity of Az was determined using different administration ways: intraperitoneal (ip), intramuscular (im) and intravenous (iv) injections.

Data set [10] deals with cultured human peripheral blood lymphocytes. Conditions: concentrations without significant cytotoxic effect; cited from earlier work. The source says: Mutagenicity, that is the induction of permanent transmissible changes in the amount or structure of the genetic material of cells or organisms, is very important parameter of drug candidate. Highly mutagenic compounds can hardly be considered for drug development, therefore mutagenicity studies are a necessary phase in preclinical evaluations.

The procedure of data set [11]:
The pharmacokinetic study was performed using 163 male ICR mice. Four experimental groups with 40 animals in each were formed. Three intact mice were used as control animals. The animals of the first two experimental groups were intravenously injected with 0.25 and 0.50 mg/kg [^125I]-Az, respectively. The animals of the other two experimental groups were intramuscularly injected with 0.25 and 0.50 mg/kg [^125I]-Az, respectively. To estimate Az elimination rate, animal blood samples were taken from the orbital sinus 5, 15, 30, 60 min and 1, 2, 4 and 24 h after [^125I]-Az administration. The obtained blood samples were weighed. For each indicated time point, [^125I]-Az concentration was calculated as a mean value in blood samples of five animals. The radioactivity (cpm) in the blood samples was counted using a Wallac 1470 WIZARD® Gamma Counter (Perkin Elmer, Waltham, MA, USA). […] Radioactivity data (cpm) were re-calculated to the concentration of [^125I]-Az in the obtained blood samples. The specific pharmacokinetic parameters (AUC (0 → t), Cmax, T1/2) of [^125I]-Az were estimated.

Where [12] appears, read: intramuscular administration, 0.25 and 0.5 mg/kg, male ICR mice.

“Also recorded” adds a separate entry of the source. Like-named read-outs stand apart in the source and are kept apart here.

`COc1cc2c3cc1Oc1cc(ccc1O)C[C@@H]1c4c(cc(OC)c(O)c4Oc4ccc(cc4)C[C@@H]3N(C)CC2)CC[N+]1(C)C` [(+)-tubocurarine]: the LD50 with mice [1] was 0.11 mg/kg.
Consider `COc1ccc(CC2c3cc(OC)c(OC)cc3CC[N+]2(C)CCC(=O)OCCCCCOC(=O)CC[N+]2(C)CCc3cc(OC)c(OC)cc3C2Cc2ccc(OC)c(OC)c2)cc1OC` (stereo not drawn) [atracurium], for which the excretion half-life in [2] is reported as 17 min.
With `CCN(N=O)C(N)=O` [ethylnitrosurea, reference compound], the “frequency of mutations in the hprt gene” value in [3] (positive control 6.25 and 12.5 μg/mL, absence of S9) was 33.9–39.5 × 10^−6.
Turning to `Cc1ccc2cc3c(ccc4ccccc43)c3c2c1CC3` [methylcholanthrene, reference compound], in data set [3] (positive control 2.5 and 5 μg/mL, presence of S9), the “frequency of mutations in the hprt gene” value is reported as 35.7–45.7 × 10^−6.
Consider `CN1CCC[C@H]1c1cccnc1` [nicotine, reference compound], for which the concentration for a half-maximal effect (EC50) in data set [4] (read-out: EC50 of nicotine-induced calcium responses) was found to be 22 ± 2 µM.
Turning to `CC(=O)O[C@H]1C[C@@H]2CC[C@@H]3[C@H](CC[C@@]4(C)[C@H]3C[C@H]([N+]3(C)CCCCC3)[C@@H]4OC(C)=O)[C@@]2(C)C[C@@H]1[N+]1(C)CCCCC1` [pancuronium], in the data set on mice [5], the “decrease of grip strength” value is listed as 24.1%.
`C=CC[N+]1([C@H]2C[C@H]3[C@@H]4CC[C@H]5C[C@H](O)[C@@H](N6CCOCC6)C[C@]5(C)[C@H]4CC[C@]3(C)[C@H]2OC(C)=O)CCCC1` [rocuronium, Rocuronium Bromide, reference compound]: the half-inhibitory concentration (IC50) in data set [6] (30 μM ACh (EC100), transfected Neuro2a cells, Case12 sensor, 15 min preincubation, mean ± SEM, 4 independent experiments, read-out: IC50, inhibition of ACh-evoked calcium response of muscle nAChR) was 0.257 ± 0.0955 µM. The “selectivity to muscle receptor versus α7 nAChR” value in [6] (ratio of calcium imaging IC50 values α7 / muscle) was “about 100 times”. Further, in [7], the IC50 was found to be 25.7 ± 4.5 µM. Besides, the “inhibition of Nic induced responses” value in [4] is “about 60%”. Also, in the data set on male ICR mice [8] (rocuronium 0.08 mg/kg im, n = 4), the “effect on grip strength compared to control” value is “no statistically significant difference; also recorded: no statistically significant relaxing effect”. Moreover, the grip strength in the data set with male ICR mice [8] (rocuronium 0.13 mg/kg im, after 60 s, n = 1) came to 0 kg. Also, the “time after injection at which effect disappeared” value in the data set with male ICR mice [8] (rocuronium im) is reported as at most 5 min. The “visible signs of toxicity” value in the data set with male ICR mice [9] (rocuronium im 0.08 mg/kg) is “did not induce visible signs of toxicity”. In addition, the “time after administration at which toxicity signs disappeared” value in the data set with male ICR mice [9] (rocuronium im 0.1 mg/kg) lay in the range of 3 to 4 min. For the same compound, the “time of first signs of intoxication after injection” value in the data set with male ICR mice [9] (rocuronium im 0.13 mg/kg) is on record as 30 s. For the same compound, the “time of death after injection” value with male ICR mice [9] (rocuronium im 0.13 mg/kg, n = 1) was found to be 11.5 min. Further, the lethality result in the data set with male ICR mice [9] (rocuronium im 0.08 and 0.1 mg/kg, n = 4 each) was “did not cause the death of animals”. Also, in [2], the Cmax is on record as 27 µg/kg and the excretion half-life is on record as 71 min. Further, the median lethal dose (LD50) entry with rats is “about 0.3 mg/kg”. Moreover, in data set [10], the genotoxicity entry is reported as “capable of causing genotoxicity via clastogenic effects”.
Take `CC(=O)O[C@H]1C[C@@H]2CC[C@@H]3[C@H](CC[C@@]4(C)[C@H]3C[C@H]([N+]3(C)CCCCC3)[C@@H]4OC(C)=O)[C@@]2(C)C[C@@H]1N1CCCCC1` [vecuronium]: in data set [2], the Cmax result is “about 1 µg/mL”. Further, the LD50 in the data set with mice [1] was 0.05 mg/kg.
Turning to diiodoazemiopsin [[^125I]-Az], the “removal from the free blood flow” value in data set [11] (during 24 h, both iv and im administration) was “almost completely removed”. In data set [11] (setting [12]), the “half-life T1/2” value was 20 to 40 min and the “time within which maximum concentration (Cmax) was achieved” value is given as “five”. The “excretion half-life (T1/2)” value in data set [11] (single intravenous injection, 0.25 and 0.5 mg/kg, male ICR mice) fell in the range of 15 to 20 min. In addition, the lethality result in the data set on male ICR mice [9] ([125I]-Az single iv and im 0.25 and 0.50 mg/kg, male ICR mice) is given as “No lethality”.
Consider α-conotoxin MII [reference compound], for which the half-maximal inhibitory concentration (IC50) in data set [4] (read-out: IC50, inhibition of calcium responses induced by 100 µM nicotine) is 0.06 ± 0.004 µM.

The LD50 is the dose expected to kill half of the subjects tested. A word on the EC50: it is the concentration needed to bring the measured effect to its halfway point. A word on the IC50: it is the concentration that inhibits the measured activity by half.
